Assay [1] deals with T1, epi-isozizaene synthase (EIZS) (Streptomyces coelicolor, UniProt Q9K499).
T1 sequence (Q9K499 1-361): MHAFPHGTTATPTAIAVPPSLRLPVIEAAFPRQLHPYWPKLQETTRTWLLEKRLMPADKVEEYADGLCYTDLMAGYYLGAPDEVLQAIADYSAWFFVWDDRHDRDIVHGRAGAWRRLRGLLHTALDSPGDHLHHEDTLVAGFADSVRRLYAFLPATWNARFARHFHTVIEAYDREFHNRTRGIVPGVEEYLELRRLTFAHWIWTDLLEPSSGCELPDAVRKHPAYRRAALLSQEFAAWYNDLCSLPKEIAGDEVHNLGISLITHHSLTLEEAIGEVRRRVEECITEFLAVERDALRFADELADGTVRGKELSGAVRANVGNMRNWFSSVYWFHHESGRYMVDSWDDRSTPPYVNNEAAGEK
The experiment in a line: X-ray crystal structure, […] Å. The class given is binding. To be noted: complex with 3 Mg2+ and BTAC; active site.

In assay [2] the target is epi-isozizaene synthase (EIZS) (Streptomyces coelicolor, UniProt Q9K499, F198A). The assay is described as follows: X-ray crystal structure, […] Å. Format: binding. The note with it: complex with 3 Mg2+ and PPi; active site, alternative orientation.
epi-isozizaene synthase (EIZS) (Streptomyces coelicolor, UniProt Q9K499, F198A), sequence (Q9K499 whole entry F198A): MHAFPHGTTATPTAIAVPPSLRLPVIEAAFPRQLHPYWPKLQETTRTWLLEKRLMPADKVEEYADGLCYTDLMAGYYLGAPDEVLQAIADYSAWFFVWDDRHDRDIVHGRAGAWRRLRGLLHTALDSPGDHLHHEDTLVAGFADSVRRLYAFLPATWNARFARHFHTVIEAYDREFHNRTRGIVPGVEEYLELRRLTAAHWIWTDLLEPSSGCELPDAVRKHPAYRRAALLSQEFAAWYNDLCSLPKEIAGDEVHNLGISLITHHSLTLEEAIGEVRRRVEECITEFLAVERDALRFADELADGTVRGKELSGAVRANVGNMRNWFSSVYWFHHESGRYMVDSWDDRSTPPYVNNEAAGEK

For the molecule `O=P(O)(O)OP(=O)(O)O` [PPi, inorganic pyrophosphate], the “X-ray crystal structure, 1.60 Å” value in assay [1] is “The PPi anion also accepts hydrogen bonds from the side chains of R194, K247”.

Turning to `CC[N+](CC)(CC)Cc1ccccc1` [BTAC, benzyltriethylammonium cation], the “X-ray crystal structure, 1.64 Å” value in assay [2] was “the BTAC molecule occupies an alternative position”.

Values taken from PMC2840623 (Biochemistry, 2010).
